Measured values reported in ChEMBL document CHEMBL1143708, “5-alkynyl analogs of arabinouridine and 2'-deoxyuridine: cytostatic activity against herpes simplex virus and varicella-zoster thymidine kinase gene-transfected cells” (J Med Chem, 2007).
≈ marks a conversion by molar mass, not a printed value. Calls of active or inactive are those of the source. The rule behind the calls is not given here.

Columns and labels:
Human alphaherpesvirus 1 [1] = experiment: Antiviral activity against thymidine kinase-deficient HSV1 B2006 in E6SM cells assessed as reduction of virus-induced cytopathogenicity; format: functional, organism-based; details: Human alphaherpesvirus 1, B2006, E6SM
Human alphaherpesvirus 2 = experiment: Antiviral activity against HSV2 G in E6SM cells assessed as reduction of virus-induced cytopathogenicity; format: functional, organism-based; details: Human alphaherpesvirus 2, G
[2] = Cytotoxicity against E6SM cells assessed as alteration in cell morphology; format: cell-based; details: human
Human alphaherpesvirus 1 [3] = experiment: Antiviral activity against thymidine kinase deficient HSV1 VMW1837 in E6SM cells assessed as reduction of virus-induced cytopathogenicity; format: functional, organism-based; details: Human alphaherpesvirus 1, VMW1837, E6SM
[4] = Inhibition of proliferation of VZV thymidine kinase expressing OSTtk-/VZVtk+ -b cells; format: functional; details: Homo sapiens
[5] = Inhibition of proliferation of VZV thymidine kinase expressing OSTtk-/VZVtk+ -a cells; format: functional; details: Homo sapiens
OST = experiment: Inhibition of proliferation of thymidine kinase deficient OST cells; format: functional, cell-based; details: Homo sapiens
Human alphaherpesvirus 1 [6] = experiment: Antiviral activity against HSV1 KOS in E6SM cells assessed as reduction of virus-induced cytopathogenicity; format: functional, organism-based; details: Human alphaherpesvirus 1, KOS
Human betaherpesvirus 5 [7] = experiment: Antiviral activity against HCMV Davis in HEL cells assessed as reduction of virus plaque formation; format: functional, organism-based; details: Human betaherpesvirus 5, Davis
Human betaherpesvirus 5 [8] = experiment: Antiviral activity against HCMV AD169 in HEL cells assessed as reduction of virus plaque formation; format: functional, organism-based; details: Human betaherpesvirus 5, AD169, HEL
[9] = Cytotoxicity against HEL cells; format: cell-based; details: human
[10] = tested on: Mammalian orthoreovirus 1; experiment: Antiviral activity against Reovirus1 in vero cells assessed as reduction of virus-induced cytopathicity at 40 to >400 ug/mL; format: functional, organism-based
FM3A [11] = experiment: Inhibition of proliferation of thymidine kinase deficient mouse FM3A cells expressing HSV2 thymidine kinase; format: functional, cell-based
[12] = tested on: Vesicular stomatitis virus; experiment: Antiviral activity against VSV in HeLa cells at 40 to >400 ug/mL; format: functional, organism-based
Human respirovirus 3 = experiment: Antiviral activity against Parainfluenza 3 virus in vero cells assessed as reduction of virus-induced cytopathicity at 20 to >400 ug/mL; format: functional, organism-based
FM3A [13] = experiment: Inhibition of proliferation of thymidine kinase deficient mouse FM3A cells; format: functional, cell-based
Coxsackievirus B4 [14] = experiment: Antiviral activity against Coxsackie virus B4 in HeLa cells at 40 to >400 ug/mL; format: functional, organism-based
Human alphaherpesvirus 3 [15] = experiment: Antiviral activity against TK+ VZV OKA in HEL cells assessed as reduction of virus plaque formation; format: functional, organism-based; details: Human alphaherpesvirus 3, OKA
[16] = Inhibition of proliferation of mouse FM3A/O cells; format: functional, cell-based
Human alphaherpesvirus 3 [17] = experiment: Antiviral activity against thymidine kinase deficient VZV YS/R in HEL cells assessed as reduction of virus plaque formation; format: functional, organism-based; details: Human alphaherpesvirus 3, YS/R
Human alphaherpesvirus 3 [18] = experiment: Antiviral activity against thymidine kinase deficient VZV 07/1 in HEL cells assessed as reduction of virus plaque formation; format: functional, organism-based; details: Human alphaherpesvirus 3, 07/1, HEL
[19] = tested on: Respiratory syncytial virus; experiment: Antiviral activity against Respiratory syncytial virus in HeLa cells at 40 to >400 ug/mL; format: functional, organism-based
Human alphaherpesvirus 3 [20] = experiment: Antiviral activity against TK+ VZV YS in HEL cells assessed as reduction of virus plaque formation; format: functional, organism-based; details: Human alphaherpesvirus 3, YS
[21] = Cytotoxicity against HEL cells assessed as alteration in cell morphology; format: cell-based; details: human
Punta Toro virus [22] = experiment: Antiviral activity against Punta Toro virus in vero cells assessed as reduction of virus-induced cytopathicity at 20 to >400 ug/mL; format: functional, organism-based
Sindbis virus = experiment: Antiviral activity against Sindbis virus in vero cells assessed as reduction of virus-induced cytopathicity at 40 to >400 ug/mL; format: functional, organism-based
FM3A [23] = experiment: Inhibition of proliferation of thymidine kinase deficient mouse FM3A cells expressing HSV1 thymidine kinase; format: functional, cell-based
[24] = tested on: Mammalian orthoreovirus 1; experiment: Antiviral activity against Reovirus1 in vero cells; format: functional, organism-based; details: Mammalian orthoreovirus 1, Vero
[25] = tested on: Vesicular stomatitis virus; experiment: Antiviral activity against VSV in HeLa cells; format: functional, organism-based
[26] = tested on: Respiratory syncytial virus; experiment: Antiviral activity against Respiratory syncytial virus in HeLa cells; format: functional, organism-based; details: human respiratory syncytial virus
Punta Toro virus [27] = experiment: Antiviral activity against Punta Toro virus in vero cells; format: functional, organism-based
Coxsackievirus B4 [28] = experiment: Antiviral activity against Coxsackie virus B4 in HeLa cells; format: functional, organism-based; details: Enterovirus B
Human alphaherpesvirus 3 [29] = experiment: Antiviral activity against thymidine kinase deficient VZV YS in HEL cells assessed as reduction of virus plaque formation; format: functional, organism-based; details: Human alphaherpesvirus 3, YS

SMILES | EC50 (Human alphaherpesvirus 1 [1]) [µg/mL] | EC50 (Human alphaherpesvirus 2) [µg/mL] | MCC [2] [µg/mL] | EC50 (Human alphaherpesvirus 1 [3]) [µg/mL] | IC50 [4] [µM] | IC50 [5] [µM] | IC50 (OST) [µM] | EC50 (Human alphaherpesvirus 1 [6]) [µg/mL] | EC50 (Human betaherpesvirus 5 [7]) [µM] | EC50 (Human betaherpesvirus 5 [8]) [µM] | CC50 [9] [µM] | Activity [10] | IC50 (FM3A [11]) [µM] | Activity [12] | Activity (Human respirovirus 3) | IC50 (FM3A [13]) [µM] | Activity (Coxsackievirus B4 [14]) | EC50 (Human alphaherpesvirus 3 [15]) [µM] | IC50 [16] [µM] | MCC [21] [µM] | other results
O=c1[nH]c(=O)n([C@H]2C[C@H](O)[C@@H](CO)O2)cc1/C=C/Br [BRIVUDINE] | 40 (≈ 120 µM) | 150 (≈ 450 µM) | ≥ 400 | 40 (≈ 120 µM) | 0.35 | 0.6 | ≥ 250 | 0.02 (≈ 0.06 µM) | – | – | – | – | – | – | – | – | – | – | – | – | –
Nc1ccn(C[C@@H](CO)OCP(=O)(O)O)c(=O)n1 [CIDOFOVIR] | – | – | – | – | – | – | – | – | 0.66 | 0.66 | 121 | – | – | – | – | – | – | – | – | – | –
C[Si](C)(C)C#Cc1cn([C@@H]2O[C@H](CO)[C@@H](O)[C@@H]2O)c(=O)[nH]c1=O | 150 (≈ 441 µM) | 2 (≈ 5.88 µM) | 400 | 150 (≈ 441 µM) | 1.9 | 0.75 | ≥ 176 | 0.7 (≈ 2.06 µM) | > 50 | > 50 | 127 | inactive | 0.29 | inactive | inactive | ≥ 250 | inactive | 0.48 | ≥ 250 | 200 | EC50 (Human alphaherpesvirus 3 [17]): > 50 µM; EC50 (Human alphaherpesvirus 3 [18]): > 50 µM; Activity [19]: inactive; EC50 (Human alphaherpesvirus 3 [20]): 0.33 µM; Activity (Punta Toro virus [22]): inactive; Activity (Sindbis virus): inactive; IC50 (FM3A [23]): 3.8 µM
NC(=O)c1ncn([C@@H]2O[C@H](CO)[C@@H](O)[C@H]2O)n1 [RIBAVIRIN] | 20 (≈ 81.9 µM) | 150 (≈ 614 µM) | 400 | 70 (≈ 287 µM) | – | – | – | 70 (≈ 287 µM) | – | – | – | – | – | – | – | – | – | – | – | – | IC50 [24]: 0.7 µg/mL (≈ 2.87 µM); IC50 [25]: 20 µg/mL (≈ 81.9 µM); IC50 [26]: 2 µg/mL (≈ 8.19 µM); IC50 (Punta Toro virus [27]): 20 µg/mL (≈ 81.9 µM); IC50 (Coxsackievirus B4 [28]): 20 µg/mL (≈ 81.9 µM)
CC(=O)OC[C@H]1O[C@@H](n2cc(C#CI)c(=O)[nH]c2=O)[C@@H](OC(C)=O)[C@@H]1OC(C)=O | > 10 | 7 (≈ 13.5 µM) | 40 | > 10 | 3.9 | 3.6 | 5.4 | 20 (≈ 38.4 µM) | > 20 | > 20 | 20 | inactive | 0.96 | inactive | inactive | 20 | inactive | 8.5 | 18 | 50 | EC50 (Human alphaherpesvirus 3 [18]): > 20 µM; Activity [19]: inactive; EC50 (Human alphaherpesvirus 3 [20]): 3.1 µM; Activity (Punta Toro virus [22]): inactive; Activity (Sindbis virus): inactive; IC50 (FM3A [23]): 5.4 µM; EC50 (Human alphaherpesvirus 3 [29]): > 20 µM
C#Cc1cn([C@@H]2O[C@H](CO)[C@@H](O)[C@@H]2O)c(=O)[nH]c1=O | – | – | 400 | – | – | – | – | – | – | – | – | – | – | – | – | – | – | – | – | 200 | –
